Experimental findings from ChEMBL document CHEMBL2074475, “Uptake of enalapril and expression of organic anion transporting polypeptide 1 in zonal, isolated rat hepatocytes” (Drug Metab Dispos, 2000) are described below.

Common to all, as to assay type: functional, cell-based
The target in data set [1] is T1, Solute carrier organic anion transporter family member 1A4 (Rattus norvegicus, UniProt O35913).
T1 sequence (O35913 whole entry): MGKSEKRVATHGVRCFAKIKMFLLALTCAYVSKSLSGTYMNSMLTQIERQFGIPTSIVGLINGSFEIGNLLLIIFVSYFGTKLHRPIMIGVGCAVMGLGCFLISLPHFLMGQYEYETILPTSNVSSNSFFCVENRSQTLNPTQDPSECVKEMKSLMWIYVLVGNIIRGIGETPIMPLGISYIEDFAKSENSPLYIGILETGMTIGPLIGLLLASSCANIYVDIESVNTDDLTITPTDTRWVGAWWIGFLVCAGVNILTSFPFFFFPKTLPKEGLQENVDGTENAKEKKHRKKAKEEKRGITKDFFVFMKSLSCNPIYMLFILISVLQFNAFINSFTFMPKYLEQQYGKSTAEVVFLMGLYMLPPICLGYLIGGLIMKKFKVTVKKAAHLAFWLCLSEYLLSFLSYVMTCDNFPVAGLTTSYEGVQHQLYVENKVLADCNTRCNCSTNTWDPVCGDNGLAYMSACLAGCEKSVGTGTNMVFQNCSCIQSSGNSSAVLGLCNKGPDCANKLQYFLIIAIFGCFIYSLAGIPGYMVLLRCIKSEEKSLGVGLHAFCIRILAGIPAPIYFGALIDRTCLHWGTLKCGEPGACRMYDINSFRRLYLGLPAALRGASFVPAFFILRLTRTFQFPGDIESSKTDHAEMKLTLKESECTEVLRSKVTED
Nature of the data set: TP_TRANSPORTER: uptake in Oatp2-expressing HeLa cells. As to conditions: human.

Data set [2] addresses T2, Solute carrier organic anion transporter family member 1A1 (Rattus norvegicus, UniProt P46720).
T2 sequence (P46720 whole entry): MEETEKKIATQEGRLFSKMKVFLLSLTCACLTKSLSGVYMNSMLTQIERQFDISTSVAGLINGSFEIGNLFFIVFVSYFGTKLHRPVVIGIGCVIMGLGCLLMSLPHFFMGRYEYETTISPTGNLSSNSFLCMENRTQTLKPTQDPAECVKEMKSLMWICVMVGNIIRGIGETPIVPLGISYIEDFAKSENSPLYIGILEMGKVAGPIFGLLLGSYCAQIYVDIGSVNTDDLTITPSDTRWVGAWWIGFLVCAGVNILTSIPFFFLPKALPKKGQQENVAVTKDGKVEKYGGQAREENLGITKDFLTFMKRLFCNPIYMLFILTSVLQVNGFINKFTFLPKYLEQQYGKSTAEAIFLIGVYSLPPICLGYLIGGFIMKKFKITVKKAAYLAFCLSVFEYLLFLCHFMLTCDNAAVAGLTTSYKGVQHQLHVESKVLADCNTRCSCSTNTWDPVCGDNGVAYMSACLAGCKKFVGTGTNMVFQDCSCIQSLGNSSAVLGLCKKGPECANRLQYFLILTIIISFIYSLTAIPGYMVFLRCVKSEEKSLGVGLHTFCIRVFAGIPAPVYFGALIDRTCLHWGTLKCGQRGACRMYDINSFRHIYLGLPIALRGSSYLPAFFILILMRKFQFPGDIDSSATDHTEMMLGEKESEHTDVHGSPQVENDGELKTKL
In words: TP_TRANSPORTER: uptake in Oatp1-expressing HeLa cells. As to conditions: human.

The target of data set [3] is T3, Solute carrier organic anion transporter family member 1A2 (Homo sapiens, UniProt P46721).
T3 sequence (P46721 whole entry): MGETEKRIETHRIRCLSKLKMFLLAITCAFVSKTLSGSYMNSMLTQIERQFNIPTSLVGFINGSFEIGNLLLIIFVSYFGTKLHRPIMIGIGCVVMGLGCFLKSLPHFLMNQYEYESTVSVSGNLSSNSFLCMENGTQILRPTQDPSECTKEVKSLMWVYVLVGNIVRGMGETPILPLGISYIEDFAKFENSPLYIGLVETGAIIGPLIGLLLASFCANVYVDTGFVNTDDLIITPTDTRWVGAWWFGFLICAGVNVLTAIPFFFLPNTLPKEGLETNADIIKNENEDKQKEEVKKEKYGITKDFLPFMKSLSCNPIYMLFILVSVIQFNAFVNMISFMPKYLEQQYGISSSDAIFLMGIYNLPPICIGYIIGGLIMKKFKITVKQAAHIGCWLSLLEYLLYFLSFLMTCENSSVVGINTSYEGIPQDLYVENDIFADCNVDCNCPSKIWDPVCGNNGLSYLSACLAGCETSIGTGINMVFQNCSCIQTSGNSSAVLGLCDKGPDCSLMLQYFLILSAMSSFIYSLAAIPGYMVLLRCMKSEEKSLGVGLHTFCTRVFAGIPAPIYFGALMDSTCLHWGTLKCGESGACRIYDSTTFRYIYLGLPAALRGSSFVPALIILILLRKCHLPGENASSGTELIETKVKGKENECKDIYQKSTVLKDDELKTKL
In words: TP_TRANSPORTER: uptake in OATP-expressing HeLa cells.

With `CCOC(=O)[C@H](CCc1ccccc1)N[C@@H](C)C(=O)N1CCC[C@H]1C(=O)O` [ENALAPRIL], the Activity result was “is not a substrate [-]” in data set [1], “substrate [+]” in data set [2] and “is not a substrate [-]” in data set [3].
